Like-named read-outs stand apart in the source and are kept apart here. One block for each molecule: values may come before it.
Legend:
[1] = target: T1, GalNAc-T4 lectin domain (T4ld) (Homo sapiens, UniProt Q8N4A0); assay: Direct binding ELISA to GalNAc-MUC1 glycopeptide, competitive inhibition, T4ld
T1 construct: made in house; host or cells: High Five insect cells (baculovirus, pAcGP67-A)
Procedure: (§1) Protein biotinylation was made as previously reported^62. The pH of 1 ml purified protein (0.3 mg/ml) in PBS was adjusted to pH 9 with 1 M NaOH and 40 μl N-hydroxy-succinimidobiotin (Sigma) dissolved in DMF (10 mg/ml) was added. The solution was mixed end-over-end for 2 hours at room temperature, and dialyzed three times against PBS and an equal volume of glycerol was added. The biotinylated proteins were stored at −20° C. in 50% glycerol until use.
(§2) Direct binding ELISA assay was developed as follows: Polystyrene microtiter plates (Maxisorb, Nunc, Denmark) were coated with peptides or enzymatically glycosylated glycopeptides in PBS overnight at 4° C. Plates were washed and blocked with 0.1% Tween20 and 0.2% BSA in PBS for 1 h at room temperature, followed by incubation with biotinylated proteins in PBS with 0.05% Tween20 for 2 h at room temperature. After four washes with PBS, plates were incubated with 1:2,000 dilution streptavidin-HRP (Sigma) in PBS for 30 min at room temperature and washed four times with PBS. Development was performed with 0.5 mg/ml o-phenylenediamine and 0.02% H2O2 at room temperature for 15 min, and reaction stopped by adding 100 μl/well of 0.5 N H2SO4. Competitive inhibition assays were done at end-point titers of GalNAc-transferase proteins with one hour preincubations with inhibitor.
(§3) In binding studies using lectins without biotinylation antibodies to the HIS-tag and the T7-tag, or in some experiments antibodies raised to GalNAc-T2 and -T4 enzymes were used to detect binding.

[2] = target: T2, GalNAc-T2 lectin domain (T2ld) (Homo sapiens, UniProt Q10471); assay: Direct binding ELISA to GalNAc-MUC1 glycopeptide, competitive inhibition, T2ld
T2 construct: made in house; host or cells: High Five insect cells (baculovirus, pAcGP67-A)
T2 sequence (Q10471 408-571): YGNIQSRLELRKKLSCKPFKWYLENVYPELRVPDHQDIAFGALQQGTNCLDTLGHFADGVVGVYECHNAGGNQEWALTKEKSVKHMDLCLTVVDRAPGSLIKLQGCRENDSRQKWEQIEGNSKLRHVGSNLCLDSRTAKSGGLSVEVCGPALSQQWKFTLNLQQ
Procedure: as §1, §2, §3

[3] = target: T3, secreted soluble GalNAc-T2 (sT2) (Homo sapiens, UniProt Q10471); assay: Direct binding ELISA to GalNAc-MUC1 glycopeptide, competitive inhibition, sT2
T3 construct: HIS-tagged secreted human GalNAc-T2 and -T4 were prepared from pAC-GP67-T2-sol and pAC-GP67-T4-sol cDNA; 6xHis (N); thrombin cleavage site (N); T7 tag (N); made in house; host or cells: High Five insect cells (baculovirus)
Procedure: as §1, §2, §3

[4] = target: T4, secreted soluble GalNAc-T4 (sT4) (Homo sapiens, UniProt Q8N4A0); assay: Direct binding ELISA to GalNAc-MUC1 glycopeptide, competitive inhibition, sT4; details: binding to GalNAc-MUC1 glycopeptide
T4 construct: using the GalNAc-T4-sol construct that encodes residues 32-578 inserted into pT7T3U19; 6xHis (N); thrombin cleavage site (N); T7 tag (N); made in house; host or cells: High Five insect cells (baculovirus)
Procedure: as §1, §2, §3

[5] = target: Helix Pomatia lectin (HPA) (Helix pomatia, UniProt Q2F1K8); assay: Direct binding ELISA, competitive inhibition, Helix Pomatia lectin control; details: read-out: Concentration required for 50% inhibition (IC50), HPA; control plant lectin
Source text: Glycopeptides were purified by C-18 reverse phase HPLC. Peptides were custom synthesized by Neosystems (Strasbourg). Biotinylated Helix Pomatia lectin (HPA) was from KemEnTec (Denmark). Anti-MUC1 HMFG2 monoclonal antibody was a generous gift from Joyce Taylor-Papadimitriou. Anti-MUC1 SE5 monoclonal antibody was developed by immunizing Balb/c mice with 60-mer MUC1 tandem repeat peptide glycosylated with 5 moles GalNAc per repeat. Monoclonal antibodies to the lectin domains of human GalNAc-T2 and -T4 were developed as previously described^8, 63.
as §2
Inhibition experiments were used to further define the binding specificity of GalNAc-T2 and -T4 secreted soluble enzymes as well as lectin domains compared to Helix Pomatia lectin (Table VII).

[6] = target: T5, GalNAc-T4 (Homo sapiens, UniProt Q8N4A0); assay: Inhibition of glycosylation dependent (GalNAc-glycopeptide) activity of GalNAc-T4, MALDI-TOF time-course; type: biochemical; details: […] free sugar
T5 construct: using the GalNAc-T4-sol construct that encodes residues 32-578 inserted into pT7T3U19; made in house; host or cells: High Five insect cells (baculovirus, pAcGP67)
Procedure: MALDI-TOF time-course in terminal reactions were performed in reactions of 25 μl containing 2.5 nmol acceptor (glyco)peptide, 40 nmol UDP-GalNAc, and 0.4 μg GalNAc-T4. Sampling of reactions (1 μl) were purified by nano-scale reversed-phase chromatography (Poros R3, PerSeptive Biosystem) and applied directly to the probe with matrix (41). The amount of GalNAc-transferase added was adjusted so that the reaction with the appropriate peptide was near completion in six hours. Reactions were incubated at 37° C. in a shaker bath. At times 0, 2 hours, and 16 hours a 1 μl aliquot was taken and purified. Mass spectra were acquired on either Voyager-DE mass spectrometer equipped with delayed extraction (Perseptive Biosystem Inc.). The matrix used was 2,5-dihydroxybenzoic acid (10 mg/ml, Hewlett-Packard) dissolved in a 2:1 mixture of 0.1% trifluoroacetic acid in 30% aqueous acetonitrile (Rathburn Ltd.).
Quantification of purified proteins was done by Coomassie stained SDS-PAGE and titration of immunoreactivity with the monoclonal antibody, UH6(4G2) (8). […] Wild-type GalNAc-T4 and mutant GalNAc-T4, GalNAc-T4^459H, were analysed with unglycosylated peptides (represented by PSGL-1) or GalNAc glycosylated glycopeptides (represented by GalNAc3TAP25V21) in reactions of 25 μl containing 2.5 nmol acceptor (glyco)peptide, 40 nmol UDP-GalNAc, and 0.4 μg GalNAc-T4. Time-course assays were motioned by MALDI-TOF. Sampling of reactions (1 μl) were purified by nano-scale reversed-phase chromatography (Poros R3, PerSeptive Biosystem) and applied directly to the probe with matrix. Evaluation of inhibition of the glycopeptide specificity of wild-type GalNAc-T4 with free sugars was performed to establish if the lectin domain recognized carbohydrate. […] Further, analysis was performed with 10 mM α-D-GalNAc-1-benzyl, αGlcNAc-benzyl, and fully occupied GalNAc-glycopeptide, GalNAc6TAP25, at 5 mM.

[7] = read-out: Concentration required for 50% inhibition (IC50), T4ld
[8] = read-out: Concentration required for 50% inhibition (IC50), T2ld
[9] = read-out: Concentration required for 50% inhibition (IC50), sT2
[10] = read-out: Concentration required for 50% inhibition (IC50), sT4

Compound: COC1O[C@H](CO)[C@H](O)[C@H](O)[C@H]1O (single isomer, unassigned) [MeβGal]
IC50 [1]: > 100 mM
IC50 [2]: > 100 mM
IC50 [3]: > 100 mM
IC50 [4]: 40 mM

Compound: CC(=O)N[C@H]1[C@H](OCc2ccccc2)O[C@H](CO)[C@@H](O)[C@@H]1O [BzlβGlcNAc]
IC50 [1]: > 100 mM
IC50 [2]: > 100 mM
IC50 [3]: > 100 mM
IC50 [5]: > 20 mM
IC50 [4]: > 100 mM

Inhibition of glycosylation dependent specificity of GalNAc-T4 [6]: failed to show significant inhibition
Compound: C[C@@H]1OC(O)[C@@H](O)[C@H](O)[C@@H]1O (stereo partly drawn) [Fuc]

Inhibition of glycosylation dependent specificity of GalNAc-T4 [6]: failed to show significant inhibition
Compound: OC[C@H]1OC(O)[C@H](O)[C@@H](O)[C@H]1O (stereo partly drawn) [Gal]

Inhibition of glycosylation dependent specificity of GalNAc-T4 [6]: failed to show significant inhibition
IC50 [1, 7]: > 100 mM
IC50 [2, 8]: > 100 mM
IC50 [3, 9]: > 100 mM
IC50 [5]: 8 mM
IC50 [4, 10]: > 100 mM
Compound: CC(=O)N[C@H]1C(O)O[C@H](CO)[C@@H](O)[C@@H]1O (stereo partly drawn) [GlcNAc]

Compound: CO[C@H]1O[C@H](CO)[C@H](O)[C@H](O)[C@H]1O [MeαGal]
IC50 [1, 7]: > 100 mM
IC50 [2, 8]: > 100 mM
IC50 [3, 9]: > 100 mM
IC50 [5]: > 100 mM
IC50 [4, 10]: 50 mM

IC50 [2, 8]: 15 mM
IC50 [5]: 1 mM
Compound: CC(=O)N[C@H]1[C@@H](Oc2ccccc2)O[C@H](CO)[C@H](O)[C@@H]1O [PhlαGalNAc]
